From article PMC6385122, “Design and Synthesis of Arylamidine Derivatives as Serotonin/Norepinephrine Dual Reuptake Inhibitors” (Molecules, 2019)
Counter-ions that a name gives are not always drawn.

Legend:
[1] = target: T1, 5-HT reuptake (5-HT transporter) (Rattus norvegicus, UniProt P31652); assay: Inhibition of 5-HT reuptake in rat brain synaptosome (3H-5-HT uptake); assay type: biochemical; conditions: 10 μM, read-out: 5-HT reuptake percent inhibition
T1 construct: from tissue; host or cells: Wistar rat brain (procerebrum; crude synaptosomal supernatant)
Experimental: (§1) All the target compounds were evaluated for their inhibitory activity against the reuptake of 5-HT and NE at the cellular level. Rat brain tissue was used for the uptake test, which included ^3H-5-HT and ^3H-NE [15]. 1-[7,8-^3H]-Noradrenaline and 5-hydroxy-[^3H]-tryptamine trifluoroacetate were obtained from Amersham Corporation.
(§2) Adult male Wistar rats were used. Animals were killed by decapitation and the whole brain, with the exception of the brainstem and cerebellum, was quickly removed. The procerebrum region was prepared, weighed, and homogenized in 10 volumes of ice-cold 0.32 mol/L sucrose solution using a glass homogenizer. The homogenate was centrifuged at 1000× g and 4 °C for 10 min. The supernatant was decanted and used for the uptake experiments. […] For each assay, three tubes were incubated with the vehicle (20 µL) at 0 °C in an ice bath. After incubation, the tubes were immediately filtered with a cell harvester. The fiberglass filter membrane was washed three times with ice-cold saline, placed in a scintillation vial, and counted in liquid scintillation cocktail (4 mL). Active uptake was the difference between the counts per minute at 37 and 0 °C. The percent inhibition at each drug concentration was the mean of three measurements.

[2] = target: T2, NE reuptake (NE transporter) (Rattus norvegicus, UniProt Q63380); assay: Inhibition of NE reuptake in rat brain synaptosome (3H-NE uptake); assay type: biochemical; conditions: 10 μM, read-out: NE reuptake percent inhibition
T2 construct: from tissue; host or cells: Wistar rat brain (procerebrum; crude synaptosomal supernatant)
Experimental: as §1, §2

T2 sequence (Q63380 1-617): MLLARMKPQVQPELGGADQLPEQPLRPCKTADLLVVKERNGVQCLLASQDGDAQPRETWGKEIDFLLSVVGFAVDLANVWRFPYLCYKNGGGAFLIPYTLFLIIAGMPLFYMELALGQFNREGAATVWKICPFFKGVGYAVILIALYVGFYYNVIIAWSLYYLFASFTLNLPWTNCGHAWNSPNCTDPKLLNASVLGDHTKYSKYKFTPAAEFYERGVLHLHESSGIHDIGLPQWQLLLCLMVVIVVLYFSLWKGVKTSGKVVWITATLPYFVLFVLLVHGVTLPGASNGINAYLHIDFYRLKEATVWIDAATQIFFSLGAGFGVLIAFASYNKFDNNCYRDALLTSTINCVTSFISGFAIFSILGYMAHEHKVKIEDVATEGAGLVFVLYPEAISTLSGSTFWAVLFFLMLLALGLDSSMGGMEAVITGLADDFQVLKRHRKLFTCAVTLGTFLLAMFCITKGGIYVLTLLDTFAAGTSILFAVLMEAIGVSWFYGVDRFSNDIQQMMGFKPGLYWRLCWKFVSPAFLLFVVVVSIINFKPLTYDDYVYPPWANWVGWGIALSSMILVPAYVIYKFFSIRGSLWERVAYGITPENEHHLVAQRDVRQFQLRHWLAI
T1 sequence (P31652 whole entry): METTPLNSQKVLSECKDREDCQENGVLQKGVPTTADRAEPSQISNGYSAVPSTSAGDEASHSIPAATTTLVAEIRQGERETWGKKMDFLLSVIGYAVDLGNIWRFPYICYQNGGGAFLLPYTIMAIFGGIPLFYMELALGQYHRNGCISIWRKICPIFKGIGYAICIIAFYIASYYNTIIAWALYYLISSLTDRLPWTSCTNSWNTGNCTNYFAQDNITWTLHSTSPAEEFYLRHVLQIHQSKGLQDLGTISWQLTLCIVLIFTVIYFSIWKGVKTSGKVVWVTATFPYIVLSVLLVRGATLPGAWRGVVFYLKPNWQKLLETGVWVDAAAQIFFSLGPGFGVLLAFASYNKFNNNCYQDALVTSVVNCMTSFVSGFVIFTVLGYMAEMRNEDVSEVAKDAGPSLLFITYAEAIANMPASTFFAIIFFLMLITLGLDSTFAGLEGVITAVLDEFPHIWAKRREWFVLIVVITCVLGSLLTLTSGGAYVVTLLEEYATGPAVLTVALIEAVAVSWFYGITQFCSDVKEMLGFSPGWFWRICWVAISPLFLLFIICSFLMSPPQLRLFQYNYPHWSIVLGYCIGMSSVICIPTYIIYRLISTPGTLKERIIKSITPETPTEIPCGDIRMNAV

SMILES	melting point [°C]	inhibition at 10 µM [1] [%]	inhibition at 10 µM [2] [%]
O=[N+]([O-])c1ccc(/C(=N\Cc2ccccc2)N2CCNCC2)cc1 (as salt: hydrochloride) [Compound I-2, (E)-N-((4-Nitrophenyl)(piperazin-1-yl)methylene)-1-phenylmethanaminehydrochloride]	230 to 231	–	–
Clc1ccccc1/C(=N\Cc1ccccc1)N1CCNCC1 (as salt: hydrochloride) [Compound I-3, (E)-N-((2-Chlorophenyl)(piperazin-1-yl)methylene)-1-phenylmethanaminehydrochloride]	142 to 144	–	–
Clc1cccc(/C(=N\Cc2ccccc2)N2CCNCC2)c1 (as salt: hydrochloride) [Compound I-4, (E)-N-((3-Chlorophenyl)(piperazin-1-yl)methylene)-1-phenylmethanaminehydrochloride]	235 to 237	–	–
Clc1ccc(/C(=N\Cc2ccccc2)N2CCNCC2)cc1 (as salt: hydrochloride) [Compound I-5, (E)-N-((4-Chlorophenyl)(piperazin-1-yl)methylene)-1-phenylmethanaminehydrochloride]	182 to 184	–	–
Fc1ccc(/C(=N\Cc2ccccc2)N2CCNCC2)cc1 (as salt: hydrochloride) [Compound I-6, (E)-N-((4-Fluorophenyl)(piperazin-1-yl)methylene)-1-phenylmethanaminehydrochloride]	220 to 222	–	–
O=[N+]([O-])c1ccc(/C(=N\Cc2ccccc2)N2CCNCC2)cc1 [Compound I-2, (E)-N-((4-Nitrophenyl)(piperazin-1-yl)methylene)-1-phenylmethanaminehydrochloride]	–	38	66
Clc1ccccc1/C(=N\Cc1ccccc1)N1CCNCC1 [Compound I-3, (E)-N-((2-Chlorophenyl)(piperazin-1-yl)methylene)-1-phenylmethanaminehydrochloride]	–	48	65
Clc1cccc(/C(=N\Cc2ccccc2)N2CCNCC2)c1 [Compound I-4, (E)-N-((3-Chlorophenyl)(piperazin-1-yl)methylene)-1-phenylmethanaminehydrochloride]	–	58	63
Clc1ccc(/C(=N\Cc2ccccc2)N2CCNCC2)cc1 [Compound I-5, (E)-N-((4-Chlorophenyl)(piperazin-1-yl)methylene)-1-phenylmethanaminehydrochloride]	–	47	57
Fc1ccc(/C(=N\Cc2ccccc2)N2CCNCC2)cc1 [Compound I-6, (E)-N-((4-Fluorophenyl)(piperazin-1-yl)methylene)-1-phenylmethanaminehydrochloride]	–	17	39
Fc1ccccc1/C(=N\Cc1ccccc1)N1CCNCC1 [Compound I-7, (E)-N-((2-Fluorophenyl)(piperazin-1-yl)methylene)-1-phenylmethanaminehydrochloride]	–	38	35
N#Cc1ccc(/C(=N\Cc2ccccc2)N2CCNCC2)cc1 [Compound I-8, (E)-4-((Benzylimino)(piperazin-1-yl)methyl)benzonitrilehydrochloride]	–	54	67
N#Cc1cccc(/C(=N\Cc2ccccc2)N2CCNCC2)c1 [Compound I-9, (E)-3-((Benzylimino)(piperazin-1-yl)methyl)benzonitrilehydrochloride]	–	65	51
Cc1ccc(/C(=N\Cc2ccccc2)N2CCNCC2)cc1 [Compound I-10, (E)-1-Phenyl-N-(piperazin-1-yl(p-tolyl)methylene)methanaminehydrochloride]	–	61	47
O=[N+]([O-])c1ccc(/C(=N\Cc2ccccc2)N2CCNCC2)c(Cl)c1 [Compound I-11, (E)-N-((2-Chloro-4-nitrophenyl)(piperazin-1-yl)methylene)-1-phenylmethanaminehydrochloride]	–	50	49
O=[N+]([O-])c1ccc(/C(=N\Cc2ccc(Cl)cc2)N2CCNCC2)cc1 [Compound I-12, (E)-1-(4-Chlorophenyl)-N-((4-nitrophenyl)(piperazin-1-yl)methylene)methanaminehydrochloride]	–	51	81
Clc1ccc(C/N=C(\c2ccccc2Cl)N2CCNCC2)cc1 [Compound I-13, (E)-1-(4-Chlorophenyl)-N-((2-chlorophenyl)(piperazin-1-yl)methylene)methanaminehydrochloride]	–	67	84
Clc1ccc(C/N=C(\c2cccc(Cl)c2)N2CCNCC2)cc1 [Compound I-14, (E)-1-(4-Chlorophenyl)-N-((3-chlorophenyl)(piperazin-1-yl)methylene)methanaminehydrochloride]	–	76	60
Clc1ccc(C/N=C(\c2ccc(Cl)cc2)N2CCNCC2)cc1 [Compound I-15, (E)-1-(4-Chlorophenyl)-N-((4-chlorophenyl)(piperazin-1-yl)methylene)methanaminehydrochloride]	–	48	68
Fc1ccc(/C(=N\Cc2ccc(Cl)cc2)N2CCNCC2)cc1 [Compound I-16, (E)-1-(4-Chlorophenyl)-N-((4-fluorophenyl)(piperazin-1-yl)methylene)methanaminehydrochloride]	–	45	26
Fc1ccccc1/C(=N\Cc1ccc(Cl)cc1)N1CCNCC1 [Compound I-17, (E)-1-(4-Chlorophenyl)-N-((2-fluorophenyl)(piperazin-1-yl)methylene)methanaminehydrochloride]	–	43	27
N#Cc1ccc(/C(=N\Cc2ccc(Cl)cc2)N2CCNCC2)cc1 [Compound I-18, (E)-1-(4-Chlorophenyl)-N-((4-cyanophenyl)(piperazin-1-yl)methylene)methanaminehydrochloride]	–	75	63
Cc1ccc(/C(=N\Cc2ccc(Cl)cc2)N2CCNCC2)cc1 [Compound I-20, (E)-1-(4-Chlorophenyl)-N-(piperazin-1-yl(p-tolyl)methylene)methanaminehydrochloride]	–	72	35
COc1ccc(C/N=C(\c2ccc([N+](=O)[O-])cc2)N2CCNCC2)cc1 [Compound I-21, (E)-1-(4-Methoxyphenyl)-N-((4-nitrophenyl)(piperazin-1-yl)methylene)methanaminehydrochloride]	–	34	57

The remaining lines, values ahead:

melting point [°C]	inhibition at 10 µM [1] [%]	inhibition at 10 µM [2] [%]	SMILES
–	80	67	c1ccc(/C(=N\Cc2cccc3ccccc23)N2CCNCC2)cc1 [II-1, (E)-1-(Naphthalen-1-yl)-N-(phenyl(piperazin-1-yl)methylene)methanaminehydrochloride]
–	57	52	O=[N+]([O-])c1ccc(/C(=N\Cc2cccc3ccccc23)N2CCNCC2)cc1 [II-2, (E)-1-(Naphthalen-1-yl)-N-((4-nitrophenyl)(piperazin-1-yl)methylene)methanaminehydrochloride]
–	84	76	Fc1ccc(/C(=N\Cc2cccc3ccccc23)N2CCNCC2)cc1 [II-3, (E)-N-((4-Fluorophenyl)(piperazin-1-yl)methylene)-1-(naphthalen-1-yl)methanaminehydrochloride]
–	65	75	Clc1cccc(/C(=N\Cc2cccc3ccccc23)N2CCNCC2)c1 [II-6, (E)-N-((3-Chlorophenyl)(piperazin-1-yl)methylene)-1-(naphthalen-1-yl)methanaminehydrochloride]
–	62	59	Clc1ccc(/C(=N\Cc2cccc3ccccc23)N2CCNCC2)cc1 [II-7, (E)-N-((4-Chlorophenyl)(piperazin-1-yl)methylene)-1-(naphthalen-1-yl)methanaminehydrochloride]
–	70	46	N#Cc1ccc(/C(=N\Cc2cccc3ccccc23)N2CCNCC2)cc1 [II-8, (E)-4-(((Naphthalen-1-ylmethyl)imino)(piperazin-1-yl)methyl)benzonitrilehydrochloride]
–	88	54	N#Cc1cccc(/C(=N\Cc2cccc3ccccc23)N2CCNCC2)c1 [II-9, (E)-3-(((Naphthalen-1-ylmethyl)imino)(piperazin-1-yl)methyl)benzonitrilehydrochloride]
–	82	63	Cc1ccc(/C(=N\Cc2cccc3ccccc23)N2CCNCC2)cc1 [II-10, (E)-1-(Naphthalen-1-yl)-N-(piperazin-1-yl(p-tolyl)methylene)methanaminehydrochloride]
–	73	66	O=[N+]([O-])c1cccc2c(/C(=N\Cc3ccccc3)N3CCNCC3)cccc12 [III-1, (E)-N-((5-Nitronaphthalen-1-yl)(piperazin-1-yl)methylene)-1-phenylmethanaminehydrochloride]
